From the supplement of paper PMC10733146

Legend:
Experiment in all cases: viability relative to DMSO control (fraction); higher = less drug effect (more viable cells)
Conditions in all cases: 48 h
[1] = tested on: primary ALL patient cells (S048)
Summary of the method: (§1)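 Primary mononuclear tumour cells (Ficoll-isolated from blood or bone marrow, or processed lymph node; fresh or cryopreserved) were plated at 4 × 10^4 cells per well in 384-well plates with pre-plated compounds at five concentrations, one well each. Medium was RPMI-1640 with penicillin/streptomycin, L-glutamine and human serum, at 37 °C and 5% CO2 for 48 h. Viability was read as CellTiter-Glo luminescence relative to the median of 16 inner DMSO wells.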

[2] = tested on: primary ALL patient cells (S088)
Summary of the method: as §1

[3] = tested on: primary AML patient cells (S002)
Summary of the method: as §1

[4] = tested on: primary AML patient cells (S009)
Summary of the method: as §1

[5] = tested on: primary AML patient cells (S017)
Summary of the method: as §1

[6] = tested on: primary AML patient cells (S019)
Summary of the method: as §1

[7] = tested on: primary AML patient cells (S021)
Summary of the method: as §1

[8] = tested on: primary AML patient cells (S025)
Summary of the method: as §1

[9] = tested on: primary AML patient cells (S055)
Summary of the method: as §1

[10] = tested on: primary AML patient cells (S060)
Summary of the method: as §1

[11] = tested on: primary AML patient cells (S071)
Summary of the method: as §1

[12] = tested on: primary AML patient cells (S072)
Summary of the method: as §1

[13] = tested on: primary AML patient cells (S079)
Summary of the method: as §1

[14] = tested on: primary AML patient cells (S089)
Summary of the method: as §1

[15] = tested on: primary AML patient cells (S091)
Summary of the method: as §1

[16] = tested on: primary B-PLL patient cells (S016)
Summary of the method: as §1

[17] = tested on: primary DLBCL patient cells (S082)
Summary of the method: as §1

[18] = tested on: primary FL patient cells (S022)
Summary of the method: as §1

[19] = tested on: primary FL patient cells (S087)
Summary of the method: as §1

Compound `CNC(=O)c1cc(Oc2ccc(NC(=O)Nc3ccc(Cl)c(C(F)(F)F)c3)cc2)ccn1` [Sorafenib] has a viability ([1]; 0.024 µM) of 0.874, a viability ([1]; 0.12 µM) of 1 and a viability ([1]; 0.6 µM) of 0.889. For the same compound, the viability ([1]; 3 µM) was 0.894, the viability ([1]; 15 µM) was 1.03 and the viability ([2]; 0.024 µM) was 0.811. The viability ([2]; 0.12 µM) was 0.896, the viability ([2]; 0.6 µM) was 0.844 and the viability ([2]; 3 µM) was 0.996. It also gave a viability ([2]; 15 µM) of 1.31, a viability ([3]; 0.024 µM) of 0.941 and a viability ([3]; 0.12 µM) of 1.07. For the same compound, the viability ([3]; 0.6 µM) was 1.09, the viability ([3]; 3 µM) was 1.29 and the viability ([3]; 15 µM) was 0.601. The viability ([4]; 0.024 µM) was 0.947, the viability ([4]; 0.12 µM) was 0.828 and the viability ([4]; 0.6 µM) was 0.869. For the same compound, the viability ([4]; 3 µM) was 0.985, the viability ([4]; 15 µM) was 0.906 and the viability ([5]; 0.024 µM) was 0.955. The viability ([5]; 0.12 µM) was 0.988, the viability ([5]; 0.6 µM) was 0.935 and the viability ([5]; 3 µM) was 1.04. The viability ([5]; 15 µM) was 0.927, the viability ([6]; 0.024 µM) was 0.833 and the viability ([6]; 0.12 µM) was 1.18. It also gave a viability ([6]; 0.6 µM) of 0.846, a viability ([6]; 3 µM) of 1.11 and a viability ([6]; 15 µM) of 0.835. The viability ([7]; 0.024 µM) was 0.995, the viability ([7]; 0.12 µM) was 1.09 and the viability ([7]; 0.6 µM) was 1.07. For the same compound, the viability ([7]; 3 µM) was 1.12, the viability ([7]; 15 µM) was 0.888 and the viability ([8]; 0.024 µM) was 0.988. It also gave a viability ([8]; 0.12 µM) of 1.02, a viability ([8]; 0.6 µM) of 1.06 and a viability ([8]; 3 µM) of 1.13. For the same compound, the viability ([8]; 15 µM) was 0.813, the viability ([9]; 0.024 µM) was 0.971 and the viability ([9]; 0.12 µM) was 1.04. For the same compound, the viability ([9]; 0.6 µM) was 1.02, the viability ([9]; 3 µM) was 1.08 and the viability ([9]; 15 µM) was 1.04. For the same compound, the viability ([10]; 0.024 µM) was 0.963, the viability ([10]; 0.12 µM) was 0.951 and the viability ([10]; 0.6 µM) was 1.02. It also gave a viability ([10]; 3 µM) of 1.02, a viability ([10]; 15 µM) of 1.09 and a viability ([11]; 0.024 µM) of 0.944. The viability ([11]; 0.12 µM) was 1.01, the viability ([11]; 0.6 µM) was 1.02 and the viability ([11]; 3 µM) was 1. For the same compound, the viability ([11]; 15 µM) was 0.614, the viability ([12]; 0.024 µM) was 1.02 and the viability ([12]; 0.12 µM) was 1.04. For the same compound, the viability ([12]; 0.6 µM) was 0.99, the viability ([12]; 3 µM) was 1.04 and the viability ([12]; 15 µM) was 1.01. For the same compound, the viability ([13]; 0.024 µM) was 0.99, the viability ([13]; 0.12 µM) was 1.02 and the viability ([13]; 0.6 µM) was 1.04. It also gave a viability ([13]; 3 µM) of 1.1, a viability ([13]; 15 µM) of 0.791 and a viability ([14]; 0.024 µM) of 0.847. The viability ([14]; 0.12 µM) was 0.645, the viability ([14]; 0.6 µM) was 0.822 and the viability ([14]; 3 µM) was 0.973. The viability ([14]; 15 µM) was 0.587, the viability ([15]; 0.024 µM) was 0.929 and the viability ([15]; 0.12 µM) was 1.13. It also gave a viability ([15]; 0.6 µM) of 1.34, a viability ([15]; 3 µM) of 1.98 and a viability ([15]; 15 µM) of 1.46. For the same compound, the viability ([16]; 0.024 µM) was 0.964, the viability ([16]; 0.12 µM) was 1.05 and the viability ([16]; 0.6 µM) was 1.01. The viability ([16]; 3 µM) was 1, the viability ([16]; 15 µM) was 0.978 and the viability ([17]; 0.024 µM) was 1. For the same compound, the viability ([17]; 0.12 µM) was 1.02, the viability ([17]; 0.6 µM) was 1.03 and the viability ([17]; 3 µM) was 1.18. For the same compound, the viability ([17]; 15 µM) was 1.35, the viability ([18]; 0.024 µM) was 1.05 and the viability ([18]; 0.12 µM) was 1.01. The viability ([18]; 0.6 µM) was 1.06, the viability ([18]; 3 µM) was 0.999 and the viability ([18]; 15 µM) was 1. It also gave a viability ([19]; 0.024 µM) of 1.01, a viability ([19]; 0.12 µM) of 1.04 and a viability ([19]; 0.6 µM) of 1.08. For the same compound, the viability ([19]; 3 µM) was 1.06 and the viability ([19]; 15 µM) was 1.04.
`C[C@@H](Oc1cc(-c2cnn(C3CCNCC3)c2)cnc1N)c1c(Cl)ccc(F)c1Cl` [Crizotinib] gave a viability ([1]; 0.024 µM) of 0.999, a viability ([1]; 0.12 µM) of 1.04 and a viability ([1]; 0.6 µM) of 0.989. It also gave a viability ([1]; 3 µM) of 0.638, a viability ([1]; 15 µM) of 0.0947 and a viability ([2]; 0.024 µM) of 0.93. It also gave a viability ([2]; 0.12 µM) of 0.956, a viability ([2]; 0.6 µM) of 0.798 and a viability ([2]; 3 µM) of 0.568. It also gave a viability ([2]; 15 µM) of 0.0811, a viability ([3]; 0.024 µM) of 1.04 and a viability ([3]; 0.12 µM) of 1.08. The viability ([3]; 0.6 µM) was 1.01, the viability ([3]; 3 µM) was 0.928 and the viability ([3]; 15 µM) was 0.652. It also gave a viability ([4]; 0.024 µM) of 0.984, a viability ([4]; 0.12 µM) of 0.895 and a viability ([4]; 0.6 µM) of 0.761. For the same compound, the viability ([4]; 3 µM) was 0.57, the viability ([4]; 15 µM) was 0.147 and the viability ([5]; 0.024 µM) was 1.03. For the same compound, the viability ([5]; 0.12 µM) was 1.03, the viability ([5]; 0.6 µM) was 1.02 and the viability ([5]; 3 µM) was 0.636. For the same compound, the viability ([5]; 15 µM) was 0.299, the viability ([6]; 0.024 µM) was 0.982 and the viability ([6]; 0.12 µM) was 1.11. The viability ([6]; 0.6 µM) was 0.911, the viability ([6]; 3 µM) was 0.665 and the viability ([6]; 15 µM) was 0.298. For the same compound, the viability ([7]; 0.024 µM) was 1.06, the viability ([7]; 0.12 µM) was 1.1 and the viability ([7]; 0.6 µM) was 1.1. The viability ([7]; 3 µM) was 0.831, the viability ([7]; 15 µM) was 0.345 and the viability ([8]; 0.024 µM) was 0.983. The viability ([8]; 0.12 µM) was 1.05, the viability ([8]; 0.6 µM) was 1.02 and the viability ([8]; 3 µM) was 0.94. The viability ([8]; 15 µM) was 0.794, the viability ([9]; 0.024 µM) was 0.948 and the viability ([9]; 0.12 µM) was 0.954. For the same compound, the viability ([9]; 0.6 µM) was 0.999, the viability ([9]; 3 µM) was 0.683 and the viability ([9]; 15 µM) was 0.524. It also gave a viability ([10]; 0.024 µM) of 0.926, a viability ([10]; 0.12 µM) of 0.931 and a viability ([10]; 0.6 µM) of 0.931. The viability ([10]; 3 µM) was 0.841, the viability ([10]; 15 µM) was 0.445 and the viability ([11]; 0.024 µM) was 0.879. It also gave a viability ([11]; 0.12 µM) of 0.837, a viability ([11]; 0.6 µM) of 0.556 and a viability ([11]; 3 µM) of 0.363. For the same compound, the viability ([11]; 15 µM) was 0.0351, the viability ([12]; 0.024 µM) was 0.903 and the viability ([12]; 0.12 µM) was 0.983. It also gave a viability ([12]; 0.6 µM) of 0.838, a viability ([12]; 3 µM) of 0.602 and a viability ([12]; 15 µM) of 0.127. It also gave a viability ([13]; 0.024 µM) of 0.977, a viability ([13]; 0.12 µM) of 0.953 and a viability ([13]; 0.6 µM) of 0.872. It also gave a viability ([13]; 3 µM) of 0.659, a viability ([13]; 15 µM) of 0.256 and a viability ([14]; 0.024 µM) of 0.935. For the same compound, the viability ([14]; 0.12 µM) was 0.93, the viability ([14]; 0.6 µM) was 0.722 and the viability ([14]; 3 µM) was 0.359. It also gave a viability ([14]; 15 µM) of 0.0318, a viability ([15]; 0.024 µM) of 0.922 and a viability ([15]; 0.12 µM) of 0.97. For the same compound, the viability ([15]; 0.6 µM) was 0.817, the viability ([15]; 3 µM) was 0.249 and the viability ([15]; 15 µM) was 0.0707. It also gave a viability ([16]; 0.024 µM) of 0.971, a viability ([16]; 0.12 µM) of 0.944 and a viability ([16]; 0.6 µM) of 0.874. The viability ([16]; 3 µM) was 0.88, the viability ([16]; 15 µM) was 0.255 and the viability ([17]; 0.024 µM) was 0.975. For the same compound, the viability ([17]; 0.12 µM) was 0.989, the viability ([17]; 0.6 µM) was 1.01 and the viability ([17]; 3 µM) was 0.916. For the same compound, the viability ([17]; 15 µM) was 0.36, the viability ([18]; 0.024 µM) was 1.09 and the viability ([18]; 0.12 µM) was 1.06. For the same compound, the viability ([18]; 0.6 µM) was 1.09, the viability ([18]; 3 µM) was 0.959 and the viability ([18]; 15 µM) was 0.377. For the same compound, the viability ([19]; 0.024 µM) was 0.979, the viability ([19]; 0.12 µM) was 1.03 and the viability ([19]; 0.6 µM) was 0.999. For the same compound, the viability ([19]; 3 µM) was 0.821 and the viability ([19]; 15 µM) was 0.111.
